Measured values published in patent publication US8716281B2, “Pyrimidine compounds that inhibit anaplastic lymphoma kinase” (Amgen Inc., priority 2010, dated 2014).

molecular target: T1, wild-type human ALK cytoplasmic domain (amino acids 1058-1620) (Homo sapiens, UniProt Q9UM73); assay: ALK Inhibition in Enzyme Assay (Lance TR-FRET); format: biochemical; conditions: not given
T1 construct: The cytoplasmic domain (amino acids 1058-1620) of wild-type human ALK; GST (N); made in house; host or cells: SF9 insect cells
Summary of the method: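 Purified enzyme phosphorylated a biotinylated peptide substrate for 90 minutes at room temperature. Reactions were stopped with 20 mM EDTA in 50 mM Tris (pH 7.5), 100 mM NaCl, 0.05% BSA, 0.1% Tween-20. Phosphopeptide was detected by TR-FRET with SA-APC and Eu-W1024 anti-phosphotyrosine antibody PT66, excitation 320 nm.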

T1 sequence (Q9UM73 1058-1620): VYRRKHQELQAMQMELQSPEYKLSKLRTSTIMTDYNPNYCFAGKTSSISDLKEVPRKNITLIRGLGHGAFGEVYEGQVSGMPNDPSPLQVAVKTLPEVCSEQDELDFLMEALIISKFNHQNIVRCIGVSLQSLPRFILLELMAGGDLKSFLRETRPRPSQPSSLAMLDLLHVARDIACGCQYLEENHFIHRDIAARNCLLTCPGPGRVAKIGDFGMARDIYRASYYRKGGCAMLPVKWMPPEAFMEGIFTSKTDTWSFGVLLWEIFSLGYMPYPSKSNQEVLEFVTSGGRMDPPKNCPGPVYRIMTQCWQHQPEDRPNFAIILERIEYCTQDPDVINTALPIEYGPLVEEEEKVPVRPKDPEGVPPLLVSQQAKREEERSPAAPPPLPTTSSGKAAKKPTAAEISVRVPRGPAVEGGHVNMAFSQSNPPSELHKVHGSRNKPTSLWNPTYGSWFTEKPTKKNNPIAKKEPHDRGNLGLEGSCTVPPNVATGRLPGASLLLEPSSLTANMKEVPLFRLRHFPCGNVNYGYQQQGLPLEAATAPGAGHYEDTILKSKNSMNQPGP

SMILES	IC50 [nM]
COc1cc(Nc2nccc(N3CCC[C@H](C(=O)NCc4ccc([N+](=O)[O-])cc4)C3)n2)cc(OC)c1OC [Example 71, (S)-N-(4-nitrobenzyl)-1-(2-((3,4,5-trimethoxyphenyl)amino)-4-pyrimidinyl)-3-piperidinecarboxamide]	1000 to 5000

same assay, conditions: 2 nM enzyme, ATP at 40 μM (Km apparent), 90 minutes, mean of three replicates; read-out: ALK IC50

SMILES	IC50 [nM]
COc1cc(Nc2nccc(N3CCC[C@H](C(=O)NCCc4cccc(C)c4)C3)n2)cc(OC)c1OC [Example 89, (S)-N-(2-(3-methylphenyl)ethyl)-1-(2-((3,4,5-trimethoxyphenyl)amino)-4-pyrimidinyl)-3-piperidinecarboxamide]	50 to 100
Cc1ccc(CNC(=O)[C@H]2CCCN(c3ccnc(Nc4cccc(OC(F)(F)F)c4)n3)C2)cc1 [Example 164, (3S)-N-(4-methylbenzyl)-1-(2-((3-(trifluoromethoxy)phenyl)amino)-4-pyrimidinyl)-3-piperidinecarboxamide]	1000 to 5000
COc1cc(Nc2nccc(N3CCC[C@H](C(=O)NCc4ccc(-c5ccc(F)cc5)cc4)C3)n2)cc(OC)c1OC [Example 123, (S)-N-((4′-fluoro-4-biphenylyl)methyl)-1-(2-((3,4,5-trimethoxyphenyl)amino)-4-pyrimidinyl)-3-piperidinecarboxamide]	100 to 1000
COc1cc(Nc2nccc(N3CCC[C@H](C(=O)NCc4ccc5c(c4)CCCN5C)C3)n2)cc(OC)c1OC [Example 73, (S)-N-((1-methyl-1,2,3,4-tetrahydro-6-quinolinyl)methyl)-1-(2-((3,4,5-trimethoxyphenyl)amino)-4-pyrimidinyl)-3-piperidinecarboxamide]	1000 to 5000
COc1cc(Nc2nccc(N3CCC[C@H](C(=O)NCc4ccc(Cl)cc4F)C3)n2)cc(OC)c1OC [Example 29, (S)-N-(4-chloro-2-fluorobenzyl)-1-(2-((3,4,5-trimethoxyphenyl)amino)-4-pyrimidinyl)-3-piperidinecarboxamide]	50 to 100
COc1cc(Nc2nccc(N3CCC[C@H](C(=O)NCc4ccc5ccsc5c4)C3)n2)cc(OC)c1OC [Example 64, (S)-N-(1-benzothiophen-6-ylmethyl)-1-(2-((3,4,5-trimethoxyphenyl)amino)-4-pyrimidinyl)-3-piperidinecarboxamide]	100 to 1000
COc1cc(Nc2nccc(N3CCC[C@H](C(=O)NCc4ccc(Oc5ccc(F)cc5)cc4)C3)n2)cc(OC)c1OC [Example 72, (S)-N-(4-(4-fluorophenoxy)benzyl)-1-(2-((3,4,5-trimethoxyphenyl)amino)-4-pyrimidinyl)-3-piperidinecarboxamide]	100 to 1000
Cc1ccc(CNC(=O)[C@H]2CCCN(c3ccnc(Nc4ccc(C(=O)c5ccccc5)cc4)n3)C2)cc1 [Example 186, (S)-1-(2-(4-benzoylphenylamino)pyrimidin-4-yl)-N-(4-methylbenzyl)piperidine-3-carboxamide]	5000 to 10000
COc1cc(Nc2nccc(N3CCNC(C(=O)NCc4ccc(C)cc4)C3)n2)cc(OC)c1OC (centres unmarked) [Example 2, N-(4-Methylbenzyl)-4-(2-(3,4,5-Trimethoxyphenylamino)Pyrimidin-4-Yl)Piperazine-2-Carboxamide]	1000 to 5000
Cc1ccc(CNC(=O)[C@H]2CCCN(c3ccnc(Nc4cccc(C)c4)n3)C2)cc1 [Example 158, (3S)-N-(4-methylbenzyl)-1-(2-((3-methylphenyl)amino)-4-pyrimidinyl)-3-piperidinecarboxamide]	100 to 1000
COc1cc(Nc2nccc(N3CCC[C@H](C(=O)NCc4ccccc4C(F)(F)F)C3)n2)cc(OC)c1OC [Example 37, (S)-N-(2-(trifluoromethyl)benzyl)-1-(2-((3,4,5-trimethoxyphenyl)amino)-4-pyrimidinyl)-3-piperidinecarboxamide]	5000 to 10000
Cc1ccc(CNC(=O)[C@H]2CCCN(c3ccnc(Nc4ccc(C)cc4)n3)C2)cc1 [Example 180, (3S)-N-(4-methylbenzyl)-1-(2-((4-methylphenyl)amino)-4-pyrimidinyl)-3-piperidinecarboxamide]	1000 to 5000
COc1cc(Nc2nccc(N3CCC[C@H](C(=O)NCc4cccc(Oc5ccc(C)cc5)c4)C3)n2)cc(OC)c1OC [Example 114, (S)-N-(3-(4-methylphenoxy)benzyl)-1-(2-((3,4,5-trimethoxyphenyl)amino)-4-pyrimidinyl)-3-piperidinecarboxamide]	1000 to 5000
Cc1ccc(CNC(=O)[C@H]2CCCN(c3ccnc(Nc4cccc5c4CNC5=O)n3)C2)cc1 [Example 141, (3S)-N-(4-methylbenzyl)-1-(2-((1-oxo-2,3-dihydro-1H-isoindol-4-yl)amino)-4-pyrimidinyl)-3-piperidinecarboxamide]	100 to 1000
COc1cc(Nc2nccc(N3CCC[C@@H](C(=O)NCc4ccc(F)cc4)C3)n2)cc(OC)c1OC [Example 13, (R)—N-(4-Fluorobenzyl)-1-(2-(3,4,5-Trimethoxy-Phenylamino)Pyrimidin-4-Yl)Piperidine-3-Carboxamide]	1000 to 5000
COc1cc(Nc2nccc(N3CCC[C@H](C(=O)NCc4cccc5ccccc45)C3)n2)cc(OC)c1OC [Example 31, (S)-N-(1-naphthalenylmethyl)-1-(2-((3,4,5-trimethoxyphenyl)amino)-4-pyrimidinyl)-3-piperidinecarboxamide]	1000 to 5000

SMILES	IC50 [nM]
Cc1ccc(CNC(=O)[C@H]2CCCN(c3ccnc(Nc4cccc(-c5nnn[nH]5)c4)n3)C2)cc1 [Example 176, (3S)-N-(4-methylbenzyl)-1-(2-((3-(1H-tetrazol-5-yl)phenyl)amino)-4-pyrimidinyl)-3-piperidinecarboxamide]	5000 to 10000
COc1cc(Nc2nccc(N3CCC[C@H](C(=O)NCCc4ccc(Oc5ccccc5)cc4)C3)n2)cc(OC)c1OC [Example 90, (S)-N-(2-(4-phenoxyphenyl)ethyl)-1-(2-((3,4,5-trimethoxyphenyl)amino)-4-pyrimidinyl)-3-piperidinecarboxamide]	100 to 1000
COc1cc(Nc2nccc(N3CCC[C@H](C(=O)NCc4nc(C)cs4)C3)n2)cc(OC)c1OC [Example 59, (S)-N-((4-methyl-1,3-thiazol-2-yl)methyl)-1-(2-((3,4,5-trimethoxyphenyl)amino)-4-pyrimidinyl)-3-piperidinecarboxamide]	1000 to 5000
COc1cc(Nc2nccc(N3CCC[C@H](C(=O)NC(C)c4ccc(F)cc4)C3)n2)cc(OC)c1OC (stereo partly drawn) [Example 51, (S)-N-(1-(4-fluorophenyl)ethyl)-1-(2-((3,4,5-trimethoxyphenyl)amino)-4-pyrimidinyl)-3-piperidinecarboxamide]	100 to 1000
Cc1ccc(CNC(=O)[C@H]2CCCN(c3ccnc(Nc4ccc(=O)n(C)c4)n3)C2)cc1 [Example 147, (3S)-N-(4-methylbenzyl)-1-(2-((1-methyl-6-oxo-1,6-dihydro-3-pyridinyl)amino)-4-pyrimidinyl)-3-piperidinecarboxamide]	5000 to 10000
COc1cc(Nc2nccc(N3CCC[C@H](C(=O)NCc4ccc(F)c(F)c4)C3)n2)cc(OC)c1OC [Example 67, (S)-N-(3,4-difluorobenzyl)-1-(2-((3,4,5-trimethoxyphenyl)amino)-4-pyrimidinyl)-3-piperidinecarboxamide]	100 to 1000
Cc1ccc(CNC(=O)[C@H]2CCCN(c3ccnc(Nc4cc(C5CCN(C(=O)OC(C)(C)C)CC5)[nH]n4)n3)C2)cc1 [Example 144, tert-butyl 4-(3-((4-((3S)-3-((4-methylbenzyl)carbamoyl)-1-piperidinyl)-2-pyrimidinyl)amino)-1H-pyrazol-5-yl)-1-piperidinecarboxylate]	1000 to 5000
Cc1ccc(CNC(=O)[C@H]2CCCN(c3ccnc(Nc4ccc(-n5cncn5)cc4)n3)C2)cc1 [Example 191, (S)-1-(2-(4-(1H-1,2,4-triazol-1-yl)phenylamino)pyrimidin-4-yl)-N-(4-methylbenzyl)piperidine-3-carboxamide]	1000 to 5000
Cc1ccc(CNC(=O)[C@H]2CCCN(c3ccnc(Nc4cccc(S(N)(=O)=O)c4)n3)C2)cc1 [Example 151, (3S)-N-(4-methylbenzyl)-1-(2-((3-sulfamoylphenyl)amino)-4-pyrimidinyl)-3-piperidinecarboxamide]	100 to 1000
COc1cc(Nc2nccc(N3CCC[C@H](C(=O)N[C@@H](C)c4ccc(Br)cc4)C3)n2)cc(OC)c1OC [Example 27, (S)-N-((S)-1-(4-bromophenyl)ethyl)-1-(2-((3,4,5-trimethoxyphenyl)amino)-4-pyrimidinyl)-3-piperidinecarboxamide]	100 to 1000
COc1ccccc1Nc1nccc(N2CCC[C@H](C(=O)NCc3ccc(C)cc3)C2)n1 [Example 133, (3S)-1-(2-((2-methoxyphenyl)amino)-4-pyrimidinyl)-N-(4-methylbenzyl)-3-piperidinecarboxamide]	1000 to 5000
COc1cc(Nc2nccc(N3CCC[C@H](C(=O)NC4CCc5ccccc54)C3)n2)cc(OC)c1OC (stereo partly drawn) [Example 39, (S)-N-(2,3-dihydro-1H-inden-1-yl)-1-(2-((3,4,5-trimethoxyphenyl)amino)-4-pyrimidinyl)-3-pipcridinecarboxamide]	1000 to 5000
COc1cc(Nc2nccc(N3CCC[C@H](C(=O)NCc4ccc(F)cc4F)C3)n2)cc(OC)c1OC [Example 57, (S)-N-(2,4-difluorobenzyl)-1-(2-((3,4,5-trimethoxyphenyl)amino)-4-pyrimidinyl)-3-piperidinecarboxamide]	50 to 100
Cc1ccc(CNC(=O)[C@H]2CCCN(c3ccnc(Nc4cccc(CC(N)=O)c4)n3)C2)cc1 [Example 184, (3S)-1-(2-((3-(2-amino-2-oxoethyl)phenyl)amino)-4-pyrimidinyl)-N-(4-methylbenzyl)-3-piperidinecarboxamide]	100 to 1000
COc1cc(Nc2nccc(N3CCC[C@H](C(=O)NCc4ccc(OC(C)C)cc4)C3)n2)cc(OC)c1OC [Example 88, (S)-N-(4-(1-methylethoxy)benzyl)-1-(2-((3,4,5-trimethoxyphenyl)amino)-4-pyrimidinyl)-3-piperidinecarboxamide]	50 to 100
